Assay results published in ChEMBL document CHEMBL3734732, “Pyrrole- and indole-containing tranylcypromine derivatives as novel lysine-specific demethylase 1 inhibitors active on cancer cells” (Medchemcomm, 2015).

What was measured:
[1] = target: LSD1/CoREST complex (Homo sapiens, UniProt O60341); experiment: Inhibition of human recombinant LSD1/CoREST protein expressed in Escherichia coli using monomethylated H3-K4 peptide (21 amino acids) as substrate preincubated for 15 mins followed by substrate addition measured for 12 mins by HRP-coupled Ultrared detection system-based fluorescence analysis
[2] = target: LSD1/CoREST complex (Homo sapiens) (UniProt O60341+Q9UKL0); experiment: Potency index, ratio of trans-benzyl 1-(4-(2-aminocyclopropyl)phenylamino)-1-oxo-3-phenylpropan-2-ylcarbamate hydrochloride IC50 to compound IC50 for human recombinant LSD1/CoREST protein expressed in Escherichia coli
[3] = target: Lysine-specific histone demethylase 1A (Homo sapiens) (UniProt O60341); experiment: Inhibition of LSD1 in human NB4 cells assessed as induction of ITGAM mRNA expression at IC50 after 24 hrs by quantitative RT-PCR analysis relative to vehicle-treated control; format: cell-based; conditions: NB-4
[4] = target: Lysine-specific histone demethylase 1A (Homo sapiens) (UniProt O60341); experiment: Inhibition of LSD1 in human NB4 cells assessed as induction of GFI-1b mRNA expression at IC50 after 24 hrs by quantitative RT-PCR analysis relative to vehicle-treated control; format: cell-based; conditions: NB-4
[5] = target: T1, Amine oxidase [flavin-containing] A (Homo sapiens, UniProt P21397); experiment: Inhibition of human recombinant MAO A expressed in Pichia pastoris using kynuramine as substrate preincubated for 15 mins followed by substrate addition by horseradish peroxidase coupled-spectrofluorimetric assay
T1 sequence (P21397 whole entry): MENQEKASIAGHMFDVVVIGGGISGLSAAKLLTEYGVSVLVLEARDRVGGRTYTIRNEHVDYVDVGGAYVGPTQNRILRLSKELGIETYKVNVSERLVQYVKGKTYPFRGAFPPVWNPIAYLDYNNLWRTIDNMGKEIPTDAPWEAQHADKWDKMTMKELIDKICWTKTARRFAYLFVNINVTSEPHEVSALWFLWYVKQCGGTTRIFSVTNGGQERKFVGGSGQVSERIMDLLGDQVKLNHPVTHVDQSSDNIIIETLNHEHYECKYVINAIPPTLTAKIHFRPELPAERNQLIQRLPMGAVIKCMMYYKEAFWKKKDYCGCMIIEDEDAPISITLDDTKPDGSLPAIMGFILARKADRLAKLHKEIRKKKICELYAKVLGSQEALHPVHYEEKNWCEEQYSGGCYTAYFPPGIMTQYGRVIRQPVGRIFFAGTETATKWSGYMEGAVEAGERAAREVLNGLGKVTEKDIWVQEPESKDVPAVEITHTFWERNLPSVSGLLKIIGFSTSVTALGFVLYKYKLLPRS

[6] = target: T2, Amine oxidase [flavin-containing] B (Homo sapiens, UniProt P27338); experiment: Inhibition of human recombinant MAO B expressed in Pichia pastoris using benzylamine as substrate preincubated for 15 mins followed by substrate addition by horseradish peroxidase coupled-spectrofluorimetric assay
T2 sequence (P27338 whole entry): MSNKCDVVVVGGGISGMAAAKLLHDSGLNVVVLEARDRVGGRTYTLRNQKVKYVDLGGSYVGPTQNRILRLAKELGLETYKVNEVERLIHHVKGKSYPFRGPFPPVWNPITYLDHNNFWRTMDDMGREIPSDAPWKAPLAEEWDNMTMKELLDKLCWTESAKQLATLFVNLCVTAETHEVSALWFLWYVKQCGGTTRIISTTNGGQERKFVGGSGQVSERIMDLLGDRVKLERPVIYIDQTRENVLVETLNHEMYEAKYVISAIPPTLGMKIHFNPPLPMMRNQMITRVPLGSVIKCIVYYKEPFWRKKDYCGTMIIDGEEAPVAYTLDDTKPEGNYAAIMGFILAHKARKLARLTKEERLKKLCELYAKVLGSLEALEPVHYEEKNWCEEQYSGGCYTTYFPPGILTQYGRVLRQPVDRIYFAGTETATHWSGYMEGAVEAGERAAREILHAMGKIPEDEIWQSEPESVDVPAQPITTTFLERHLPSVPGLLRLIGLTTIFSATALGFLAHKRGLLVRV

[7] = tested on: MV4-11; experiment: Cytotoxicity against human MV4-11 cells assessed as growth inhibition after 72 hrs by CellTiter-Fluor Cell Viability assay; format: functional, cell-based; conditions: MV4-11, 72 h
[8] = Cytotoxicity against human NB4 cells assessed as growth inhibition after 72 hrs by CellTiter-Fluor Cell Viability assay; format: functional, cell-based; conditions: NB-4, 72 h
[9] = species on record: Homo sapiens; experiment: Selectivity ratio of IC50 for human recombinant MAO A to IC50 for human recombinant LSD1/CoREST
[10] = tested on: MV4-11; experiment: Potency index, ratio of trans-benzyl 1-(4-(2-aminocyclopropyl)phenylamino)-1-oxo-3-phenylpropan-2-ylcarbamate hydrochloride IC50 to compound IC50 for human MV4-11 cells; format: functional
[11] = tested on: NB-4; experiment: Potency index, ratio of trans-benzyl 1-(4-(2-aminocyclopropyl)phenylamino)-1-oxo-3-phenylpropan-2-ylcarbamate hydrochloride IC50 to compound IC50 for human NB4 cells; format: functional
[12] = Cytotoxicity against human NB4 cells assessed as growth inhibition at 100 uM after 72 hrs by CellTiter-Fluor Cell Viability assay; format: functional; conditions: NB-4, 72 h

Sequence of LSD1/CoREST complex (Homo sapiens) (Q9UKL0 whole entry, looked up, other chains not shown): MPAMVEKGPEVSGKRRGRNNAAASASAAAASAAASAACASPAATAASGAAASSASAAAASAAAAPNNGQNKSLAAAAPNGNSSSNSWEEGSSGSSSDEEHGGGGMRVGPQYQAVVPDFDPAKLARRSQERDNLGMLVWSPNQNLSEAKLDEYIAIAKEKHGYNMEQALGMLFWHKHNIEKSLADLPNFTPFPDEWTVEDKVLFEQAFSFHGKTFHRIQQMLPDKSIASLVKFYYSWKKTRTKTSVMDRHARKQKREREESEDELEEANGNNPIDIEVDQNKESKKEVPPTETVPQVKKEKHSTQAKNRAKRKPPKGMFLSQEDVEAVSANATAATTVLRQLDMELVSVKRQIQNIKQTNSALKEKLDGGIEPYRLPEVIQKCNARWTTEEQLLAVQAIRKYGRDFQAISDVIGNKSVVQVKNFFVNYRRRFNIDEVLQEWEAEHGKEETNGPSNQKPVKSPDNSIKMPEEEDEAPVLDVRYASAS

| Compound | IC50 [1] | Ratio IC50 [2] | fold change (FC) [3] | fold change (FC) [4] | IC50 [5] | IC50 [6] | Ratio IC50 [9] | IC50 [7] | IC50 [8] | Ratio IC50 [10] | Ratio IC50 [11] | inhibition at 100 µM [12] |
| --- | --- | --- | --- | --- | --- | --- | --- | --- | --- | --- | --- | --- |
| N[C@@H]1C[C@H]1c1ccc(NC(=O)c2ccn(C(=O)OCc3ccccc3)c2)cc1 | 50 nM | 3 | < 4 | < 6 | 110 nM | 3900 nM | < 8 | 15200 nM | 22300 nM |  |  |  |
| Cl.N[C@@H]1C[C@H]1c1ccc(NC(=O)c2cc3ccccc3n2C(=O)OCc2ccccc2)cc1 (relative stereo) | 40 nM | 3.7 | < 4 | < 6 | 160 nM | > 60000 nM | < 8 | 5900 nM | 6500 nM | 2 | 2 |  |
| N[C@@H]1C[C@H]1c1ccc(NC(=O)c2cc3ccccc3n2CC(=O)c2ccccc2)cc1 (relative stereo) | 853 nM |  |  |  |  |  |  |  |  |  |  |  |
| Cl.N[C@@H]1C[C@H]1c1ccc(NC(=O)c2cn(C(=O)OCc3ccccc3)c3ccccc23)cc1 (relative stereo) | 86 nM | 1.7 | < 4 | < 6 | 460 nM | > 70000 nM | < 8 | 2500 nM | 9300 nM | 2 | 2 |  |
| N[C@@H]1C[C@H]1c1ccc(NC(=O)c2cccn2CC(=O)NCc2ccccc2)cc1 (relative stereo) | 155 nM |  | < 4 | < 6 |  |  |  |  |  |  |  |  |
| N[C@@H]1C[C@H]1c1ccc(NC(=O)C2CCCN2C(=O)OCc2ccccc2)cc1 (relative stereo) | 61 nM | 2 |  |  |  |  |  |  |  |  |  |  |
| N[C@@H]1C[C@H]1c1ccc(NC(=O)C(Cc2ccccc2)NC(=O)OCc2ccccc2)cc1 (relative stereo) |  |  |  |  |  |  |  | 10200 nM | 17400 nM |  |  |  |

More lines, in order of falling IC50 [1], values ahead:

| IC50 [1] | Ratio IC50 [2] | fold change (FC) [3] | fold change (FC) [4] | IC50 [5] | IC50 [6] | Ratio IC50 [9] | Compound | IC50 [7] | IC50 [8] | Ratio IC50 [10] | Ratio IC50 [11] | inhibition at 100 µM [12] |
| --- | --- | --- | --- | --- | --- | --- | --- | --- | --- | --- | --- | --- |
| 1320 nM |  |  |  |  |  |  | N[C@@H]1C[C@H]1c1ccc(NC(=O)c2cccn2CC(=O)c2ccccc2)cc1 (relative stereo) |  |  |  |  |  |
| 308 nM |  |  |  |  |  |  | N[C@@H]1C[C@H]1c1ccc(NC(=O)c2cc3ccccc3n2CC(=O)NCc2ccccc2)cc1 (relative stereo) |  |  |  |  |  |
| 304 nM |  |  |  |  |  |  | N[C@@H]1C[C@H]1c1ccc(NC(=O)CNC(=O)OCc2ccccc2)cc1 (relative stereo) |  |  |  |  |  |
| 163 nM |  | < 4 | < 6 |  |  |  | N[C@@H]1C[C@H]1c1ccc(NC(=O)c2ccc[nH]2)cc1 |  |  |  |  |  |
| 125 nM |  | < 4 | < 6 |  |  |  | N[C@@H]1C[C@H]1c1ccc(NC(=O)c2cccn2CC(=O)Nc2ccccc2)cc1 (relative stereo) |  |  |  |  |  |
| 87 nM | 2 | < 4 | < 6 |  |  |  | N[C@@H]1C[C@H]1c1ccc(NC(=O)c2cc3ccccc3n2CC(=O)Nc2ccccc2)cc1 (relative stereo) |  |  |  |  |  |
| 65 nM | 2 | < 4 | < 6 |  |  |  | N[C@@H]1C[C@H]1c1ccc(NC(=O)c2cc3ccccc3[nH]2)cc1 |  |  |  |  |  |
| 32 nM | 5 | < 4 | < 6 | 260 nM | 75800 nM | < 8 | N[C@@H]1C[C@H]1c1ccc(NC(=O)c2cccn2C(=O)OCc2ccccc2)cc1 (relative stereo) | 6800 nM |  |  |  | 56% |
